pIC50: −log10 of the molar value. Several values for one entry are separate records, joined by “and”; a condition that tells them apart may be missing. Equal values may be shown once.
Target: Intestinal-type alkaline phosphatase (Homo sapiens) (UniProt P09923)
Test: human IAP enzyme inhibitors, dose response, biochemical, luminescence (AID 1017)
Conditions: purified human IAP, luminescent substrate

Sequence of Intestinal-type alkaline phosphatase (Homo sapiens) (P09923 whole entry, looked up): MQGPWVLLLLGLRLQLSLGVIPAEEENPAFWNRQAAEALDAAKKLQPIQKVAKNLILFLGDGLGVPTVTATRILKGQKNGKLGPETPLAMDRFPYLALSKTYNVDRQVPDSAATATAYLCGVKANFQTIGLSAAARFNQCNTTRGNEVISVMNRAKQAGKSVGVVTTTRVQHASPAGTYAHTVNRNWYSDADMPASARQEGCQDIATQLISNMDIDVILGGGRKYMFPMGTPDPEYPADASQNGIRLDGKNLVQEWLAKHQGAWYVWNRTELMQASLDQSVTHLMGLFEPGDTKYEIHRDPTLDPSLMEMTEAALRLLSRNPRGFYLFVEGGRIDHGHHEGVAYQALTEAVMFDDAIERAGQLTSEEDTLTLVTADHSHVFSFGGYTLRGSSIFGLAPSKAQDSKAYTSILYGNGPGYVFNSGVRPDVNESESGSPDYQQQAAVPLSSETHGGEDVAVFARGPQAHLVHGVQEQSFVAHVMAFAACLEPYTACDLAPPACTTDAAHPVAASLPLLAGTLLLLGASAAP

Row | pIC50 | Compound
1 | 5.00 | Oc1ccc(CCN=Cc2c(O)[nH]c3ccccc23)cc1O
2 | 6.96 and 6.80 | O=C1C2CC=CCC2C(=O)N1c1n[nH]c(-c2ccccc2)n1 (stereo not drawn)
3 | 6.27 and 6.04 | O=C1C2CC=CCC2C(=O)N1c1n[nH]c(Cc2ccccc2)n1 (stereo not drawn)
